In publication PMC12090182, “Repurposing of the RIPK1-Selective Benzo[1,4]oxazepin-4-one Scaffold for the Development of a Type III LIMK1/2 Inhibitor” (ACS Chemical Biology, 2025):

Legend:
Type in all cases: binding
[1] = molecular target: STK4A (Homo sapiens, UniProt Q13043); assay: DSF selectivity screening; conditions: 10 μM compound
Experimental: (§1) The assay was performed as previously described.[29],[35] Briefly, recombinant protein kinase domains at a concentration of 2 μM were mixed with a 10 μM compound in a buffer containing 20 mM HEPES, pH 7.5, and 500 mM NaCl. SYPRO Orange (5000×, Invitrogen) was added as a fluorescence probe (1 μL per mL). Subsequently, temperature-dependent protein unfolding profiles were measured using a QuantStudio 5 real-time PCR machine (Thermo Fisher). Excitation and emission filters were set to 465 and 590 nm, respectively. The temperature was raised with a step rate of 3 °C per minute. Data points were analyzed with internal software (Thermal Shift Software version 1.4, Thermo Fisher) using the Boltzmann equation to determine the inflection point of the transition curve (Table S4).

[2] = molecular target: PAK4A (Homo sapiens, UniProt O96013); assay: DSF selectivity screening; conditions: 10 μM compound
Experimental: as §1

[3] = molecular target: PCTK1A (Homo sapiens, UniProt Q00536); assay: DSF selectivity screening; conditions: 10 μM compound
Experimental: as §1

[4] = molecular target: DYRK2A (Homo sapiens, UniProt Q92630); assay: DSF selectivity screening; conditions: 10 μM compound
Experimental: as §1

[5] = molecular target: FGFR2A (Homo sapiens, UniProt P21802); assay: DSF selectivity screening; conditions: 10 μM compound
Experimental: as §1

[6] = test system: TAF1A; assay: DSF selectivity screening; conditions: 10 μM compound
Experimental: as §1

[7] = molecular target: GPRK5A (Homo sapiens, UniProt P34947); assay: DSF selectivity screening; conditions: 10 μM compound
Experimental: as §1

[8] = molecular target: OSR1A (Homo sapiens, UniProt O95747); assay: DSF selectivity screening; conditions: 10 μM compound
Experimental: as §1

[9] = molecular target: CSNK1DA (Homo sapiens, UniProt P48730); assay: DSF selectivity screening; conditions: 10 μM compound
Experimental: as §1

[10] = molecular target: BMXA (Homo sapiens, UniProt P51813); assay: DSF selectivity screening; conditions: 10 μM compound
Experimental: as §1

[11] = molecular target: PIM1A (Homo sapiens, UniProt P11309); assay: DSF selectivity screening; conditions: 10 μM compound
Experimental: as §1

[12] = molecular target: SLKA (Homo sapiens, UniProt Q9H2G2); assay: DSF selectivity screening; conditions: 10 μM compound
Experimental: as §1

[13] = molecular target: SRCA (Homo sapiens, UniProt P12931); assay: DSF selectivity screening; conditions: 10 μM compound
Experimental: as §1

[14] = molecular target: STK3A (Homo sapiens, UniProt Q13188); assay: DSF selectivity screening; conditions: 10 μM compound
Experimental: as §1

[15] = molecular target: PLK4A (Homo sapiens, UniProt O00444); assay: DSF selectivity screening; conditions: 10 μM compound
Experimental: as §1

[16] = molecular target: FGFR3A (Homo sapiens, UniProt P22607); assay: DSF selectivity screening; conditions: 10 μM compound
Experimental: as §1

[17] = molecular target: MELKA (Homo sapiens, UniProt Q14680); assay: DSF selectivity screening; conditions: 10 μM compound
Experimental: as §1

[18] = molecular target: STK39A (Homo sapiens, UniProt Q9UEW8); assay: DSF selectivity screening; conditions: 10 μM compound
Experimental: as §1

[19] = molecular target: MST4A (Homo sapiens, UniProt Q9P289); assay: DSF selectivity screening; conditions: 10 μM compound
Experimental: as §1

[20] = molecular target: FESA (Homo sapiens, UniProt P07332); assay: DSF selectivity screening; conditions: 10 μM compound
Experimental: as §1

[21] = molecular target: SRPK1A (Homo sapiens, UniProt Q96SB4); assay: DSF selectivity screening; conditions: 10 μM compound
Experimental: as §1

[22] = molecular target: CDKL1A (Homo sapiens, UniProt Q00532); assay: DSF selectivity screening; conditions: 10 μM compound
Experimental: as §1

[23] = molecular target: BMPR2A (Homo sapiens, UniProt Q13873); assay: DSF selectivity screening; conditions: 10 μM compound
Experimental: as §1

[24] = molecular target: AAK1A (Homo sapiens, UniProt Q2M2I8); assay: DSF selectivity screening; conditions: 10 μM compound
Experimental: as §1

[25] = test system: RPS6KA1A; assay: DSF selectivity screening; conditions: 10 μM compound
Experimental: as §1

[26] = molecular target: MAPK1A (Homo sapiens, UniProt P28482); assay: DSF selectivity screening; conditions: 10 μM compound
Experimental: as §1

[27] = molecular target: VRK1A (Homo sapiens, UniProt Q99986); assay: DSF selectivity screening; conditions: 10 μM compound
Experimental: as §1

[28] = molecular target: CAMK4A (Homo sapiens, UniProt Q16566); assay: DSF selectivity screening; conditions: 10 μM compound
Experimental: as §1

[29] = molecular target: MAP2K6A (Homo sapiens, UniProt P52564); assay: DSF selectivity screening; conditions: 10 μM compound
Experimental: as §1

[30] = molecular target: GAKA (Homo sapiens, UniProt O14976); assay: DSF selectivity screening; conditions: 10 μM compound
Experimental: as §1

[31] = molecular target: BRAFA (Homo sapiens, UniProt P15056); assay: DSF selectivity screening; conditions: 10 μM compound
Experimental: as §1

[32] = molecular target: CASKA (Homo sapiens, UniProt O14936); assay: DSF selectivity screening; conditions: 10 μM compound
Experimental: as §1

[33] = molecular target: MAP2K4A (Homo sapiens, UniProt P45985); assay: DSF selectivity screening; conditions: 10 μM compound
Experimental: as §1

[34] = molecular target: TTKA (Homo sapiens, UniProt P33981); assay: DSF selectivity screening; conditions: 10 μM compound
Experimental: as §1

[35] = molecular target: CAMK2DA (Homo sapiens, UniProt Q13557); assay: DSF selectivity screening; conditions: 10 μM compound
Experimental: as §1

[36] = molecular target: AKT3A (Homo sapiens, UniProt Q9Y243); assay: DSF selectivity screening; conditions: 10 μM compound
Experimental: as §1

[37] = molecular target: DAPK1A (Homo sapiens, UniProt P53355); assay: DSF selectivity screening; conditions: 10 μM compound
Experimental: as §1

[38] = molecular target: PIK3CA(C420R) (Homo sapiens, UniProt P42336, C420R); assay: biochemical; conditions: read-out: Percent Control
[39] = molecular target: ABL1(E255K)-phosphorylated (Homo sapiens, UniProt P00519, E255K); assay: biochemical; conditions: read-out: Percent Control
[40] = molecular target: KIT(L576P) (Homo sapiens, UniProt P10721, L576P); assay: biochemical; conditions: 1000 nM, read-out: Percent Control

Chain of DYRK2A (Q92630 whole entry): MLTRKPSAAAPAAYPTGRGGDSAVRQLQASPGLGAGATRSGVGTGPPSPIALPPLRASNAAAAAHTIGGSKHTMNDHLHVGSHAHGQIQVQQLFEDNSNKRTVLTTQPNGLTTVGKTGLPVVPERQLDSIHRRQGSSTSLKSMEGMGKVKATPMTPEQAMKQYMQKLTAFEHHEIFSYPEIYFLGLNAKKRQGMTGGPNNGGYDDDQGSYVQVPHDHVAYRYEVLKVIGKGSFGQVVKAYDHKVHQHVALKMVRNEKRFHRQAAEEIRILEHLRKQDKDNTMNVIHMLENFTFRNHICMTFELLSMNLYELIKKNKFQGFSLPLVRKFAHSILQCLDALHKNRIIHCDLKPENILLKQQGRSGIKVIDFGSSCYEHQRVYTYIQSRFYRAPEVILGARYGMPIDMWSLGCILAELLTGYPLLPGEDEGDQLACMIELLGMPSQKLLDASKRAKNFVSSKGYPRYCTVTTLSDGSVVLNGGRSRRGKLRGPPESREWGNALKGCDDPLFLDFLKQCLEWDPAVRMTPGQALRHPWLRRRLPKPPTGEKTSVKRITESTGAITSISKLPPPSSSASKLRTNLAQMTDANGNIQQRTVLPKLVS
Chain of MST4A (Q9P289 1-300): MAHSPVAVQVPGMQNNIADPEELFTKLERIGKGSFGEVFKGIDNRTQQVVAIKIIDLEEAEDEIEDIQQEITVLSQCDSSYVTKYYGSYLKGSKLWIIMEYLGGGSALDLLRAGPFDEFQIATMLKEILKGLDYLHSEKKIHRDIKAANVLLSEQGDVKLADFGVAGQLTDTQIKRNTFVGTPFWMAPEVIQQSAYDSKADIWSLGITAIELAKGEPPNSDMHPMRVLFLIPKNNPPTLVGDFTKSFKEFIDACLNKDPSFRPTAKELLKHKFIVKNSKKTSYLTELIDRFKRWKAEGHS
Chain of MAP2K4A (P45985 102-367): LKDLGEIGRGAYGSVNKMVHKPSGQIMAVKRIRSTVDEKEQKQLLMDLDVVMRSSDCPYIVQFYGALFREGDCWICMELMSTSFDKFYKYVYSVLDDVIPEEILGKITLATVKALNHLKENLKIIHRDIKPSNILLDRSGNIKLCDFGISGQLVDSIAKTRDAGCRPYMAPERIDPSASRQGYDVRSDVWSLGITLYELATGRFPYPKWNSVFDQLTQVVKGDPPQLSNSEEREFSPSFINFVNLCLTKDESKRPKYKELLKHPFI
Chain of FGFR3A (P22607 23-806): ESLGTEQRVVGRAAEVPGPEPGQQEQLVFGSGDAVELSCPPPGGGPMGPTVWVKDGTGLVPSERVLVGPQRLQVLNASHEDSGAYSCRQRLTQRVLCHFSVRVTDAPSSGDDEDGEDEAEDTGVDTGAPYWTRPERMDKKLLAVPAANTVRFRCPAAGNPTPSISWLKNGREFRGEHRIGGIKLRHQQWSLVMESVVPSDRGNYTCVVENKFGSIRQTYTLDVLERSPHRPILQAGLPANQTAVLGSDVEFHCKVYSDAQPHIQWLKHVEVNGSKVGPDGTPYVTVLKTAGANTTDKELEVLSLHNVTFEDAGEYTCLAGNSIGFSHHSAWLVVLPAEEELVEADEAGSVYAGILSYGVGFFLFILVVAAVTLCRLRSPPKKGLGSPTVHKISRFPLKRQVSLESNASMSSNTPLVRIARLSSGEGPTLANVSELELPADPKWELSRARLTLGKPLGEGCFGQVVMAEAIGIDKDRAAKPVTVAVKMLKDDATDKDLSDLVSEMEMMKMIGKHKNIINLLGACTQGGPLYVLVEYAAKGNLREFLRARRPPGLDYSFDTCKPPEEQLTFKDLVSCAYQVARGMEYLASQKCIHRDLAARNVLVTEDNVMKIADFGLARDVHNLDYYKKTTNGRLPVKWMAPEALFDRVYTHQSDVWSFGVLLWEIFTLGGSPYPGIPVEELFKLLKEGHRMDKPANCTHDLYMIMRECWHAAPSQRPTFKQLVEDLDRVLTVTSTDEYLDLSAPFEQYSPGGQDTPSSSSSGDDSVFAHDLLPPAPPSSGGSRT
Chain of PLK4A (O00444 2-275): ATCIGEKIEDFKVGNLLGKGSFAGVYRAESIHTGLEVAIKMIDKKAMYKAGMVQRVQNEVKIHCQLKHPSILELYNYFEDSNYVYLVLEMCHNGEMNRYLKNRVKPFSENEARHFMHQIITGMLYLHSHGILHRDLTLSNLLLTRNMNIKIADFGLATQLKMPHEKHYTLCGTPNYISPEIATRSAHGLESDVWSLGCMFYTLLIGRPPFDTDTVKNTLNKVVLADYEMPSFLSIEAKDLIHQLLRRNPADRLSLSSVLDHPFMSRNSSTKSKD
Chain of BMPR2A (Q13873 189-517): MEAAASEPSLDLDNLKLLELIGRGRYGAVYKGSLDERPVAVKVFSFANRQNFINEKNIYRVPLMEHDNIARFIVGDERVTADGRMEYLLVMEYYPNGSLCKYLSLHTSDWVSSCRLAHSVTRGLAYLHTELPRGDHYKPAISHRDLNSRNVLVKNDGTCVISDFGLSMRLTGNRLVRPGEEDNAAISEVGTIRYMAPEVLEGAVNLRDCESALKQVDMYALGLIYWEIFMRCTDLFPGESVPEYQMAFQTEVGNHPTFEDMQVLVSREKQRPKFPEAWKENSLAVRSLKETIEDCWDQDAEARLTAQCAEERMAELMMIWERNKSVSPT
Chain of SRCA (P12931 254-536): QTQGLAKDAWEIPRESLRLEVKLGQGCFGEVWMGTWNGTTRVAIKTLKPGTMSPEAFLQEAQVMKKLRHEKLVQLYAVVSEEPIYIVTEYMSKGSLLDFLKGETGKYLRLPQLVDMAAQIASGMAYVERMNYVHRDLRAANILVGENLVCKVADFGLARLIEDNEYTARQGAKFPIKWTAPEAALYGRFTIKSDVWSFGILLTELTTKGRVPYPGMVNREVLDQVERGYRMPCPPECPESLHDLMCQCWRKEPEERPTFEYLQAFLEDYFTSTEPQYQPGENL
Chain of AAK1A (Q2M2I8 27-365): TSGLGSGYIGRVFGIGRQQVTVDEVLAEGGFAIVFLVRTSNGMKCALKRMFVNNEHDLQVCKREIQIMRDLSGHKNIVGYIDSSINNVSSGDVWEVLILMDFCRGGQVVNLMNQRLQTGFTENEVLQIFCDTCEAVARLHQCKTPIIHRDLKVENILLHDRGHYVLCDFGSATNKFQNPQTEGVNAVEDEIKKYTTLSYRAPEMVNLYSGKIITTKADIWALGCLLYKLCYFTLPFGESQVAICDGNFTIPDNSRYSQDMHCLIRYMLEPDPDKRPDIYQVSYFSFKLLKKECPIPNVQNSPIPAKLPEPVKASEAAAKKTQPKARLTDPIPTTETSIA
Chain of GAKA (O14976 14-351): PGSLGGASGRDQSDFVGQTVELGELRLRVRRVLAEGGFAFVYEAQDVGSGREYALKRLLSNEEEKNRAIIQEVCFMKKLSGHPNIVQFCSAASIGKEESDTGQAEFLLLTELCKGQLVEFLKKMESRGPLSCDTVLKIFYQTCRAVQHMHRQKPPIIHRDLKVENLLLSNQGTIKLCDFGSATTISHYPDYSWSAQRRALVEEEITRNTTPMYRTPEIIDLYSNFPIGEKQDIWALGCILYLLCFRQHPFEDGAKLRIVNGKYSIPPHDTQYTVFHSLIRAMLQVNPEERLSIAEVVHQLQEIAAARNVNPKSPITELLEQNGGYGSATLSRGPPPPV
Chain of FESA (P07332 whole entry): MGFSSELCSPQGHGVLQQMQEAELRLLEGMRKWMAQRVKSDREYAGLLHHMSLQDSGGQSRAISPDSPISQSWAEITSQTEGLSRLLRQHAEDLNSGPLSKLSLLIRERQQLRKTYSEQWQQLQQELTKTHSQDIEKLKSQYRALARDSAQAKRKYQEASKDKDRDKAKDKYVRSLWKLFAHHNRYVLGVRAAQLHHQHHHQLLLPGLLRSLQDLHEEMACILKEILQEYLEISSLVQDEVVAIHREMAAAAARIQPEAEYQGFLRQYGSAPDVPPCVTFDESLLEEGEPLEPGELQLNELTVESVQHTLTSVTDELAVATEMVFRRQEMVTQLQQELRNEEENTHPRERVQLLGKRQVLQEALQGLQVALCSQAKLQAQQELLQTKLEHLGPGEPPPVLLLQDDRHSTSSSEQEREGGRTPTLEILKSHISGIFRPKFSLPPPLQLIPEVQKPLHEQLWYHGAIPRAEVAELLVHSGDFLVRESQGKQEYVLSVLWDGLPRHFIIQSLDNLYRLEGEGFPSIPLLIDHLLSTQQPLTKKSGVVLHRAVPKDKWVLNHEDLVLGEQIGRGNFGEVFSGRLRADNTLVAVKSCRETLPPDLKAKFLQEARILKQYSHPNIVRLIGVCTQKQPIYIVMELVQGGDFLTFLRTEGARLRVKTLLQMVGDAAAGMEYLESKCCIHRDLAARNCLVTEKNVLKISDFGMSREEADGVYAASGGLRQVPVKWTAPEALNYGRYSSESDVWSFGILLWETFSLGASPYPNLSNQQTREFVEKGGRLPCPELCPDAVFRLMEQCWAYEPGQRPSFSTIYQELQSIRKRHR
Chain of PIM1A (P11309 whole entry): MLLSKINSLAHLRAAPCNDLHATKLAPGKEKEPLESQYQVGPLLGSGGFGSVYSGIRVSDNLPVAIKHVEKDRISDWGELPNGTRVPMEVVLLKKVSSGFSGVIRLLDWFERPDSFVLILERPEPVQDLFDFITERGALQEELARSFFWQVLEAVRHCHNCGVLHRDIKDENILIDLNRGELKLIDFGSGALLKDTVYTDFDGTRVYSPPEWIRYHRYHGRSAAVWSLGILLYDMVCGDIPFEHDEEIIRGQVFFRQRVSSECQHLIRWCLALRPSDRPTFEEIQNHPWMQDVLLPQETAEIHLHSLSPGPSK
Chain of BMXA (P51813 411-675): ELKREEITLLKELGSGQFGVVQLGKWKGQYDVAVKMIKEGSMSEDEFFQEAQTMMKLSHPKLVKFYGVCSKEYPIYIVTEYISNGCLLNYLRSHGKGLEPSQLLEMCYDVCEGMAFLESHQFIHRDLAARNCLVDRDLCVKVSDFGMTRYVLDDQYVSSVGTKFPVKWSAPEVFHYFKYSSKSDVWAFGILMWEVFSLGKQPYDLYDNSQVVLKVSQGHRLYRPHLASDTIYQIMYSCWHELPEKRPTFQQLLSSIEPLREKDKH

SMILES: CN1C(=O)[C@@H](N2CCc3c(nn(Cc4ccccc4)c3C(N)=O)C2=O)COc2cc(Cl)ccc21 [Compound 10, (S)-2-benzyl-6-(8-chloro-5-methyl-4-oxo-2,3,4,5-tetrahydrobenzo[b][1,4]oxazepin-3-yl)-7-oxo-4,5,6,7-tetrahydro-2H-pyrazolo[3,4-c]pyridine-3-carboxamide]
- ΔTm at 10 µM [1]: -0.5 °C
- ΔTm at 10 µM [2]: 0.1 °C
- ΔTm at 10 µM [3]: 0.2 °C
- ΔTm at 10 µM [4]: 0.1 °C
- ΔTm at 10 µM [5]: 0.1 °C
- ΔTM [6]: 0.3 K
- ΔTm at 10 µM [7]: -0.2 °C
- ΔTm at 10 µM [8]: 0.4 °C
- ΔTm at 10 µM [9]: 0.5 °C
- ΔTm at 10 µM [10]: 0.1 °C
- ΔTm at 10 µM [11]: -0.9 °C
- ΔTm at 10 µM [12]: -0.3 °C
- ΔTm at 10 µM [13]: 0.1 °C
- ΔTm at 10 µM [14]: 0.2 °C
- ΔTm at 10 µM [15]: 0.2 °C
- ΔTm at 10 µM [16]: 0.1 °C
- ΔTm at 10 µM [17]: 0.1 °C
- ΔTm at 10 µM [18]: 0.1 °C
- ΔTm at 10 µM [19]: -0.1 °C
- ΔTm at 10 µM [20]: 0.1 °C
- ΔTm at 10 µM [21]: 0 °C
- ΔTm at 10 µM [22]: 0 °C
- ΔTm at 10 µM [23]: 0.1 °C
- ΔTm at 10 µM [24]: 0.1 °C
- ΔTM [25]: 0 K
- ΔTm at 10 µM [26]: 0.1 °C
- ΔTm at 10 µM [27]: -0.2 °C
- ΔTm at 10 µM [28]: 0.1 °C
- ΔTm at 10 µM [29]: 0.1 °C
- ΔTm at 10 µM [30]: 0 °C
- ΔTm at 10 µM [31]: 0.1 °C
- ΔTm at 10 µM [32]: 0.1 °C
- ΔTm at 10 µM [33]: 0.1 °C
- ΔTm at 10 µM [34]: -0.3 °C
- ΔTm at 10 µM [35]: 0.4 °C
- ΔTm at 10 µM [36]: 0 °C
- ΔTm at 10 µM [37]: 0.1 °C
- remaining activity at 1 µM [38]: 92%
- remaining activity at 1 µM [39]: 94%
- remaining activity at 1 µM [40]: 92%
